Data taken from patent US20030232839A1, “Treatment of sleeping disorders using CNS sleep target modulators” (Hypnion, Inc., priority 2002, published 2003).
pKi: −log10 of the molar value.

Assays:
Male Wistar rats = assay: SCORE-2000 sleep-wake assay (EEG/EMG, locomotor activity, body temperature)
rat 5-HT2A receptor = rat 5-HT2A receptor (Rattus norvegicus, UniProt P14842); assay: 5-HT2A binding study, rat receptor; details: read-out: 5HT-2a Ki, Rat
human 5-HT2A receptor = human 5-HT2A receptor (Homo sapiens, UniProt P28223); assay: 5-HT2A binding study, human receptor; details: read-out: 5HT-2a Ki, Human
human 5-HT2A receptor, sequence (P28223 whole entry): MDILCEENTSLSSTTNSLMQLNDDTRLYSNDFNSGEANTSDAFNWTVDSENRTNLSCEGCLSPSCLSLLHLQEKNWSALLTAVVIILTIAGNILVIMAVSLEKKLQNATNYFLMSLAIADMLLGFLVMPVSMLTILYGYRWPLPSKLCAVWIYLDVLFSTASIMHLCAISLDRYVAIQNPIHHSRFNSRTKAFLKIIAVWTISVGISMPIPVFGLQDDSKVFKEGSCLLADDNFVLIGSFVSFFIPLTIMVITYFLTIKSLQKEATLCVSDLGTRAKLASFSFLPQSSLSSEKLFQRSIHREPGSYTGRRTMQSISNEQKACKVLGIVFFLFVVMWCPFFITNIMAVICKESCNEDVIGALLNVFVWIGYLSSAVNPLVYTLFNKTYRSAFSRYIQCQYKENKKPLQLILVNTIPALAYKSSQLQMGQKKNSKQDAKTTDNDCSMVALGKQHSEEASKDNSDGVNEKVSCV

[1] = 3 mg/kg and 10 mg/kg IP at CT-5

rat 5-HT2A receptor, sequence (P14842 whole entry): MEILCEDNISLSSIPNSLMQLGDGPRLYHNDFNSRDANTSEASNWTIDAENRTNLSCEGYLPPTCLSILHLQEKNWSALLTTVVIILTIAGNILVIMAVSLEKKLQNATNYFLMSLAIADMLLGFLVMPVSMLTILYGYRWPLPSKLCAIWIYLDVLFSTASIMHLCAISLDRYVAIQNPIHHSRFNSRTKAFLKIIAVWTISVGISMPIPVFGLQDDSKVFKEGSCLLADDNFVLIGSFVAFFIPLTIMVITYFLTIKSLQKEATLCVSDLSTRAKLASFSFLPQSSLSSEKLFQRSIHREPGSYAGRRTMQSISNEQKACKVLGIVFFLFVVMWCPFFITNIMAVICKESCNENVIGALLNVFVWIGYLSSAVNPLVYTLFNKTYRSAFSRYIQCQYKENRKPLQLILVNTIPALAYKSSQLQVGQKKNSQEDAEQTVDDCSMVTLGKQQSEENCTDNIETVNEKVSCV

Structure (SMILES) | activity on sleep-wakefulness in all measured variables (Male Wistar rats; 30 mg/kg) | increasing sleep and sleep consolidation (Male Wistar rats; 30 mg/kg) | pKi (rat 5-HT2A receptor) | pKi (human 5-HT2A receptor) | duration of interference with sleep post-treatment (Male Wistar rats; [1]) [h] | duration of reduction in nonREM sleep time post-treatment (Male Wistar rats; [1]) [h] | rebound hypersomnolence after sleep interference (Male Wistar rats; [1])
Cl.O=C(O)C1CN(CCCn2nc3ccccn3c2=O)CCN1c1cccc(Cl)c1 (stereo not shown) [HY-2724] | inactive | ineffective | 6.00 | < 5.00 | – | – | –
Clc1cccc(N2CCNCC2)c1 [m-CPP, meta-chlorophenylpiperazine] | – | – | – | – | 2 to 3 | 2 to 3 | followed by a rebound hypersomnolence
